The text below walks through data of PubChem BioAssay (NCI).

The structures appear in SMILES notation.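 Cultured in 96-well plates, cells were exposed to test compound for 48 hours across five concentrations. At the GI50, growth is halved. At the TGI there is no net growth.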

What all share (test): NCI-60 cell line screen, 48 h
Test [1] relates to UACC-62 melanoma.
Test [2] concerns SN12C renal.
Test [3] deals with COLO 205 colon.
Test [4] deals with M14 melanoma.
The subject of test [5] is HL-60(TB) leukemia.
Test [6] deals with OVCAR-4 ovarian.
In test [7] the test system is RPMI-8226 leukemia.
The subject of test [8] is U251 CNS.
For test [9], the system named is CCRF-CEM leukemia.
Test [10] has as its system HCC-2998 colon.

As for `CC(=O)c1c[nH]c2ccc(-c3ccnc(Nc4ccc(NC(=O)c5cccc(F)c5)c(CN5CCOCC5)c4)n3)cc12`, the GI50 is 0.127 µM in [1]; 0.153 µM in test [2]; 0.0637 µM in [3]; 0.188 µM in test [4]; 0.242 µM in test [5]; 0.307 µM in test [6]. Further, the GI50 was 0.325 µM in test [7], 0.218 µM in test [8], 0.134 µM in test [9] and 0.292 µM in test [10]. In addition, the TGI in test [1] was 0.43 µM; in test [2], more than 23.3 µM; in [3] it was 0.317 µM; in test [4], 0.794 µM; in [5], 0.928 µM; in test [6], 3.07 µM. Moreover, the TGI in test [7] is 1.35 µM; in [8] it was more than 21 µM; in test [9], more than 100 µM; in test [10] it was 16.6 µM.
In the case of `COc1cc(C=C2C(=O)OC(C)(C)OC2=O)cc(OC)c1OC`, the TGI in test [1], in [2], in test [3], in test [4], in [5] and in test [6] was more than 100 µM each time. The TGI in [7], in test [8], in test [9] and in test [10] was more than 100 µM throughout.
Take `CC(C)CCC[C@@H](C)C1CCC2[C@@H]3CC=C4C[C@@H](OC(=O)CCC(=O)NCC[N+](C)(C)CCCS(=O)(=O)[O-])CC[C@]4(C)C3CC[C@@]21C` (some centres undefined): the TGI in test [1] is 50.3 µM; in test [2], 38.2 µM; in [3] it was 40.3 µM; in test [4] it was 36 µM; in test [5] it was 36.6 µM; in [6] it was 34.5 µM. The TGI in test [7] is 45.9 µM; in test [8] it was 33.9 µM; in [9], 42.6 µM; in test [10] it was 37.5 µM.
Turning to `CCCCC#Cc1c(I)n(C2OC(CO[Si](C)(C)C(C)(C)C)C3OC(C)(C)OC32)c(=O)[nH]c1=O` (centres undefined), the GI50 in test [1] is 11.8 µM; in test [2] it was 10.2 µM; in [4] it was 17.6 µM; in test [5], 1.52 µM; in [6], 3.84 µM; in [7], 2.17 µM. For the same molecule, the figures for the GI50 in test [8], in test [9] and in test [10] were 21.9 µM, 2.64 µM and 2.8 µM, respectively. The TGI turned out to be 24 µM in [1]; 22.2 µM in test [2]; 34.8 µM in test [4]; 4.14 µM in [5]; 16.1 µM in test [6]; 5.28 µM in [7]. Further, the TGI in test [8] was more than 100 µM; in test [9] it was 8.04 µM; in test [10] it was 16.5 µM.
On to `COc1ccc(/C=N\N2C(=O)Cc3ccccc32)cc1`, for which the TGI in [1], in test [3], in [4], in test [5], in [6] and in test [7] was more than 100 µM in each case. Further, the TGI in test [8], in [9] and in [10] was more than 100 µM in each case.
As for `COc1ccc(-n2cc(-c3ccc(Cl)cc3)[nH]c2=S)cc1Cl`, the GI50 is 83.5 µM in test [1]; 39.1 µM in test [2]; more than 100 µM in test [3]; more than 100 µM in test [5]; 20.7 µM in test [6]; 55.3 µM in test [7]. For the same molecule, the GI50 in [8] is 32.3 µM; in test [9] it was 60.6 µM; in test [10], 57.4 µM. The TGI is more than 100 µM in [1]; more than 100 µM in test [2]; more than 100 µM in test [3]; more than 100 µM in test [5]; 48.6 µM in test [6]; more than 100 µM in test [7]. The TGI in test [8], in [9] and in test [10] was more than 100 µM throughout.
Turning to `Cn1c(=O)c2[nH]c(Nc3ccccc3)nc2n(C)c1=O`, the TGI in test [1], in [2], in test [3], in test [4], in test [5] and in [6] was more than 10 µM each time. For the same molecule, the TGI in test [7], in [9] and in test [10] was more than 10 µM throughout.
Take `O=C(/C=C/c1ccccc1O)CC(=O)/C=C/c1ccccc1O`: the TGI was 7.58 µM in [1]; 20.6 µM in test [2]; more than 31.6 µM in [4]; 9.87 µM in [5]; more than 88.1 µM in test [6]; 15.5 µM in test [7]. For the same molecule, the TGI in test [8] was 13 µM; in test [9], more than 26.2 µM; in test [10], 15.8 µM.
Take `Cn1c(=O)c(C2c3ccccc3Oc3c2c(=O)n(C)c2ccccc32)c(O)c2ccccc21` (centres undefined): the TGI is more than 100 µM in test [1]; more than 100 µM in test [2]; more than 100 µM in [3]; more than 100 µM in [4]; 79.2 µM in test [5]; more than 100 µM in test [6]. In addition, the TGI in test [7], in test [8] and in test [10] was more than 100 µM in each case.
With `C=CC[n+]1c(/C=C2\Sc3ccccc3N2C)sc(-c2ccccc2)c1-c1ccccc1`, the GI50 in [2] was 0.298 µM; in [3], 0.249 µM; in [4] it was 0.373 µM; in test [5] it was 0.241 µM; in test [6], 0.274 µM; in test [7] it was 0.25 µM. Moreover, the GI50 in test [8] was 0.315 µM; in test [9] it was 0.353 µM; in test [10], 0.401 µM. Further, the TGI in test [2] was 1.47 µM; in test [3], 0.658 µM; in [4], 1.59 µM; in [5] it was 0.665 µM; in test [6], 11.9 µM; in test [7], 0.987 µM. Moreover, the TGI in [8] was 12.4 µM; in [9], 11.8 µM; in test [10], 15.7 µM.
Take `COc1ccc2c(c1)C(CCN)C(=O)N2` (centres undefined): the TGI in test [1], in [3], in test [4], in test [5], in test [6] and in [7] was more than 100 µM in each case. The TGI in test [8], in test [9] and in [10] was more than 100 µM in each case.
